The results in this text go back to ChEMBL document CHEMBL4028844, “Targeting the Receptor for Advanced Glycation Endproducts (RAGE): A Medicinal Chemistry Perspective” (J Med Chem, 2017).

Some results are limits rather than exact numbers.

As usually defined, the Kd is the concentration at which binding is half-saturated. Lower therefore signals a tighter complex. The IC50 is the point on the concentration scale where inhibition reaches its midpoint. Low readings indicate greater potency in that assay, high ones weaker potency in that assay. Usually inhibition stands for the percentage by which the read-out fell short of the control. The low end stands for a response near the control, the high end for a response far below the control. The term Ki denotes the equilibrium dissociation constant of an inhibitor or competing ligand from its target. A lower Ki goes with a stronger hold on the target.

For data set [1], the target named is T1, Advanced glycosylation end product-specific receptor (Homo sapiens, UniProt Q15109). Kind of data set: Binding affinity to human His-tagged RAGE domain VC1 expressed in Escherichia coli by fluorescence titration method.
T1 sequence (Q15109 whole entry, the tested form may be a part): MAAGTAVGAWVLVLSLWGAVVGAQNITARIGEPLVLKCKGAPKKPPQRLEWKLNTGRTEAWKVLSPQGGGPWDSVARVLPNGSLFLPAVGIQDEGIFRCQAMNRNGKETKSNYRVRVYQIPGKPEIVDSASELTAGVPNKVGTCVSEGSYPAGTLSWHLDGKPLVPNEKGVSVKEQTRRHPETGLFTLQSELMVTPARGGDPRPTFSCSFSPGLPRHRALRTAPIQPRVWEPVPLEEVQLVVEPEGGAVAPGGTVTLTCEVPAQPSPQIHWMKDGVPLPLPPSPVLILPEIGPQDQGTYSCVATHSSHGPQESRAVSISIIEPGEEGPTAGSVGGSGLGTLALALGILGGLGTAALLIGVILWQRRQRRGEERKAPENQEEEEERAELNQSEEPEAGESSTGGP
The target in data set [2] is Advanced glycosylation end product-specific receptor (Rattus norvegicus, UniProt Q63495). Nature of the data set: Binding affinity to Wistar rat His-tagged RAGE domain VC1 expressed in Escherichia coli by fluorescence titration method.
Sequence of Advanced glycosylation end product-specific receptor (Rattus norvegicus, UniProt Q63495) (Q63495 whole entry, the tested form may be a part): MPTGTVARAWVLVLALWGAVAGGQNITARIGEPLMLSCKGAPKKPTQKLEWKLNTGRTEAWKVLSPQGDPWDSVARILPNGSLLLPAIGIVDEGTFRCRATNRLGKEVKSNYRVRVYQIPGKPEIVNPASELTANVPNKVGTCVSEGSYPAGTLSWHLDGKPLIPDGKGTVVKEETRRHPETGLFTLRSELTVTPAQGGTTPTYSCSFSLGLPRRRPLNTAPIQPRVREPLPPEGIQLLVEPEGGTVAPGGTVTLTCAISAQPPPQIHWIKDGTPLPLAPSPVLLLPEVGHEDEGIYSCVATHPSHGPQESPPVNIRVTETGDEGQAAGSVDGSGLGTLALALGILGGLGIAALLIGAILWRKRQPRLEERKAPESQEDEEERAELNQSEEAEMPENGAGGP
For data set [3], the target named is T1, Advanced glycosylation end product-specific receptor. Nature of the data set: Inhibition of amyloid beta binding to RAGE (unknown origin) by ELISA. On the technique in general: ELISA stands for enzyme-linked immunosorbent assay.
The target is the same in data set [4]. Kind of data set: Inhibition of […] binding to RAGE (unknown origin) by ELISA.
For data set [5] the target is unchanged. Kind of data set: Inhibition of CML binding to RAGE (unknown origin) by ELISA.
Data set [6] in a line: Cytotoxicity against mouse HT22 cells assessed as cell survival at 10 uM after 18 hrs by MTT assay relative to control. The format is cell-based, HT-22. The following applies: read-out: Survival.
The target of data set [7] is T1, Advanced glycosylation end product-specific receptor. Kind of data set: Inhibition of amyloid beta binding to human RAGE […] expressed in HEK293 cells after 10 mins by MST assay. The data set is classed as cell-based.
The target is the same in data set [8]. Kind of data set: Inhibition of amyloid beta binding to biotin-labeled human RAGE domain V at 20 uM after 60 mins by ELISA relative to cotrol.
Data set [9] shares this target. Nature of the data set: Inhibition of […] binding to human RAGE domain V expressed in CHO cells. The data set is classed as cell-based.
For data set [10] the target is unchanged. Nature of the data set: Displacement of [I125]amyloid beta (1 to 40) from human RAGE domain V expressed in CHO cells. The format is cell-based.
For data set [11] the target is unchanged. Kind of data set: Inhibition of HMGB1 binding to human RAGE domain V expressed in CHO cells. The data set is classed as cell-based.
The target is the same in data set [12]. Kind of data set: Binding affinity to human RAGE cytoplasmic domain by tryptophan fluorescence assay.
Data set [13] shares this target. Kind of data set: Binding affinity to human C-terminal His-tagged RAGE domain V (24 to 125 residues) expressed in Escherichia coli BL21(DE3) by tryptophan fluorescence assay.

For the molecule `O=C(O)c1cccnc1C(=O)O` [QUINOLINIC ACID], the Kd in data set [1] and in data set [2] was 0.043 µM in each case.
Regarding `CCCCn1c([C@@H](Cc2ccc(OCCc3ccc(Cl)cc3)cc2)NC(=O)OC(C)(C)C)nc2cc(OCCCN(CC)CC)ccc21`, the IC50 in [3] is less than 0.5 µM; in data set [4], less than 0.5 µM; in data set [5], less than 4 µM.
As for `CCN(CC)CCOc1cccc(Nc2nc(-c3ccc(Cl)cc3)cc(-c3ccc(Cl)cc3)n2)c1`, the viability at 18 h, 10 µM in data set [6] amounted to 37.3%.
For the molecule `O=C1CCC[C@@H]2[C@H]3CCCN4CCC[C@@H](CN12)[C@@H]34` [MATRINE], the Kd in data set [7] is 24000 µM. This lies in the millimolar range.
Turning to `CCCCOc1cc(OCCCN(CC)CC)ccc1NC(=O)C(CC1CCN(Cc2ccccc2)CC1)NC(=O)OCC1c2ccccc2-c2ccccc21` (stereo unspecified), the IC50 in [3], in data set [4] and in [5] was less than 0.5 µM in each case.
With `CCCCOc1cc(OCCCN(CC)CC)ccc1NC(=O)c1cc(-c2ccc(Oc3ccc(F)cc3)cc2)nn1C`, the viability at 18 h, 10 µM in data set [6] was 10.3%.
Molecule `CCN(CC)CCOc1ccc(OC)cc1NC(=O)c1nc(-c2ccc(F)cc2)cc(-c2ccc(F)cc2)n1` showed an inhibition in data set [8] greater than 4%. The viability at 18 h, 10 µM in data set [6] was determined as 100%.
Take `O=C(c1ccc(Cl)cc1)N(Cc1ccccc1)C1CCCCC1`: the results for the Ki in [9], in [10] and in [11] were 0.23 µM, 0.025 µM and 0.148 µM, respectively.
In data set [12], `Cc1c(Cl)cccc1NC(=O)CNC(=O)c1ccccc1F` gave a Kd of 0.032 µM. In other words, the double-digit nanomolar range.
Consider `COc1cc(SC)ccc1C(=O)Nc1cccc(C)n1`, for which, in data set [12], the Kd turned out to be 0.006 µM.
Turning to `Cc1nc2ccccc2n1CC(O)Cn1c2ccccc2c2ccccc21` (stereo unspecified), binding in data set [12] was put at a Kd of 0.001 µM.
In turn, `COC(=O)c1cc(O)c(O)cc1NC(=O)C1Oc2ccccc2OC1C` (stereo unspecified) gave a Kd in data set [12] of 0.002 µM. Against the preceding molecule, the Kd is about 2-fold higher.
Take `CC1NC(NCCC[C@H](N)C(=O)O)=NC1=O` (stereo partly specified): the Kd in data set [13] is 0.03 to 0.04 µM.
